Measured values reported in PMC4389257, “Structural basis for full-spectrum inhibition of translational functions on a tRNA synthetase” (Nature Communications, 2015).

Target: T1, human threonyl-tRNA synthetase (ThrRS) (Homo sapiens, UniProt P26639)
T1 construct: gene TARS1
T1 sequence (P26639 322-723): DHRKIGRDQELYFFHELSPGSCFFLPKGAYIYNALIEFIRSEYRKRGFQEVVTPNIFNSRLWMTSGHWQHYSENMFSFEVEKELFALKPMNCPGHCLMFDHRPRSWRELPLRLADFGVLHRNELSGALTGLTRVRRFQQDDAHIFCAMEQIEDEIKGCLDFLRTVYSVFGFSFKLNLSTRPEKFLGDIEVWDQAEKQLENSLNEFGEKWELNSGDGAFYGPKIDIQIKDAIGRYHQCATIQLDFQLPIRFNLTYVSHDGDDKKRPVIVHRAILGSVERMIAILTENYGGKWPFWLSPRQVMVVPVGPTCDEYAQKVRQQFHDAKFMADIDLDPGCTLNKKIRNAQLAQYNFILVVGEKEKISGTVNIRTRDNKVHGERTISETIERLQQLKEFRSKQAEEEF
Test: X-ray co-crystal structure ([…] Å); aminoacylation assay Ki
Assay type: biochemical

With `C[C@@H]1C[C@H](C)C[C@H](C)[C@@H](O)CC(=O)O[C@H]([C@@H]2CCC[C@H]2C(=O)O)C/C=C/C=C(/C#N)[C@H](O)[C@@H](C)C1` [BN, Borrelidin] the Ki was roughly 7 nM.
